Results from US20090030037A1, “Sustained Release Formulation and Dosing Schedules of Leukotriene Synthesis Inhibitor for Human Therapy” (deCODE Genetics ehf., priority 2005, published 2009).
Read-outs that look alike come from different tables or passages of the source.

Experiments:
MPO = assay: Study DG-031-201: ionomycin-induced MPO release in whole blood ex vivo; set-up: species or system human; details: difference visit 2 to 5; 500 and 750 mg/day vs placebo
Experimental: Genet. 2004). Apart from FLAP, allele A of the SNP SG12S25 in the LTA4 hydrolase gene, another gene in the LT pathway, is also associated with MI, as described in PCT application no. PCT/US03/32556 and PCT/US04/30582 incorporated by reference.
Patients who met the study eligibility criteria were enrolled and randomized into 3 different dose-level groups: (1) 64 patients on 250 mg/day therapy with DG-031 (250 mg q.d.), vs placebo; (2) 64 patients on 500 mg/day therapy with DG-031 (250 mg b.i.d.) vs placebo; and (3) 63 patients on 750 mg/day therapy with DG-031 (250 mg t.i.d.) vs placebo. […] All patients received 3 tablets per day. Treatment periods, 4 weeks in duration each, were separated by a 2-week washout period. The placebo tablets were identical in shape, color, form and taste to the active tablets except that they contained no active drug ingredients. Treatment with DG-031 or placebo was in addition to the subject's standard care, including all medications and treatment plan as prescribed by the subject's cardiologist prior to enrolment. […]
All data were analyzed according to a pre-established statistical analysis plan (SAP) and by intention-to-treat (ITT). […] The difference between DG-031 and placebo treatment was the primary outcome, assessed separately for each of the biomarkers. […]

[1] = Steady-state DG-031 plasma concentrations and half-life, studies DG-031-201 and DG-031-203; type: in vivo, human; details: humans
Excerpt: Maintaining the minimum concentration using TIED dosing requires only about 70% of the drug that is required for a BID schedule. TID dosing is a more efficient process in terms of drug utilization when the goal is maintaining concentrations above a minimum threshold. It has the added advantage of reducing a patient's total exposure to the drug.

[2] = asthma patients, cited from earlier work
CRP = assay: Study DG-031-203: serum CRP; type: in vivo, human
Experimental: The study also collected information on the dose-related effect of DG-031 on capacity for LTB4 production (ex vivo), plasma MPO, and serum-CRP. […] The pattern observed supported a concentration dependent pharmacologic effect of DG-031 on capacity for LTB4 production measured ex vivo. The effects on LTB4 production amounted to a 30% (p=0.016) and 25% (p=0.094) reduction with the 375 mg BID and 250 mg TID doses, respectively.

[3] = Study DG-031-204: serum creatinine; type: in vivo, human; details: both 500 mg BID and 500 mg TID groups
Experimental: An additional single site, open label study was carried out to obtain biomarker and safety data on additional DG-031 doses (i.e., 1000 mg and 1500 mg). This study examined the safety, tolerability and dose-related effects of DG-031 on inflammatory biomarkers including: LTB4, hsCRP, and MPO. A total of 119 patients with a prior history of CAD and MI were randomized to receive either 1000 mg DG-031 (500 mg BID) or 1500 mg DG-031 (500 mg TID) daily for 4-6 weeks. Treatment with DG-031 in addition to the subject's standard care, medication, and treatment, was prescribed by the patient's cardiologist. A majority of the subjects received statin therapy before, during and after the study. Follow-up assessments were performed 2 weeks after the end of study drug administration.
Liver function tests (AST, ALT, GGT) were assessed weekly during study drug administration and two weeks after dosing. […] Serum creatinine (Cr) was measured weekly during study drug administration and two weeks after dosing. In both the 500 mg BID and 500 mg TID treatment groups, mean serum Cr concentrations increased 4-5% relative to baseline levels. At the 2-week follow up visit, mean serum Cr returned to baseline in the cohort treated for 4 weeks, but remained elevated in the group treated for 6 weeks. Creatine kinase (CK) measurements were obtained weekly during study drug administration and two weeks after dosing.

SMILES: O=C(O)[C@@H](c1ccc(OCc2ccc3ccccc3n2)cc1)C1CCCC1 [DG-031, (R)-(+)-alpha-cyclopentyl-4-(2-quinolinylmethoxy)-Benzeneacetic acid]
- Carry-over effect, MPO in whole blood, corr. for wbc (MPO): 0.01
- Dominant half-life [1]: 2.5 to 3 h
- Safety and tolerability ([2]; total daily dose 250-1000 mg, 14 days): safe and well tolerated
- Safety and tolerability ([2]; total daily doses 100-1000 mg, 14-42 days): safe and well tolerated
- Reduction in CRP levels, high CRP group (CRP; 250 mg TID, CRP above median 1.4 mg/L at entry): 48%
- CRP, change (CRP; 250 mg TID, Study 203, 1 wk): 37% (St. 203)
- Reduction of serum CRP (CRP; 250 mg TID, after one week, follow-up study (203), all subjects): 38%
- Reduction in CRP levels, high CRP group (CRP; 375 mg BID, CRP above median at entry, p=0.16): 31%
- CRP, change (CRP; 375 mg BID, Study 203): No effect
- Change in serum CRP (CRP; 375 mg BID, one week, all subjects): −1%
- CRP, change (CRP; 375 mg QD, Study 203, 1 wk): −28%
- Increase of mean serum Cr concentrations relative to baseline [3]: 4-5%
